Converted amounts (≈) assume the structure as drawn. “And” between values parts separate entries of the source, which are not always exact repeats. Equal entries are not always repeated. Where two headings read alike, the source gives them in different places. Where a SMILES comes first, the peptide text is derived from it.
Key:
[1] = tested on: P. aeruginosa 4891; assay type: cell-based, Pseudomonas aeruginosa
Text: (§1) Biofilms may form on a wide variety of surfaces, including living or dead surfaces, and biofilm-associated bacteria are more tolerant to antibiotics than planktonic bacterial cells, making them antibiotic-resistant. To assess the efficacy of PEP27-2 against biofilms, we observed the anti-biofilm activity of PEP27-2 in S. aureus (ATCC 25923 and CCARM 3090), E. coli (ATCC 25922 and CCARM 1238), and P. aeruginosa (ATCC 27853 and 4891).
(§2) Specifically, among the strains listed in Table 3 above, Staphylococcus aureus, E. coli and Pseudomonas erujinosa, respectively, were cultured in each medium to a mid-log phase, diluted to a cell concentration of 5×10^4 cells/100 μl, and then, inoculated into a micro-plate (SPL). Then, PEP27-2 peptide was diluted 1/10 times with 10 mM PBS solution (pH 7.2) and 10 μl of the solution was added to each well, followed by incubation at 37° C. for 24 hours. After completely removing the supernatant, the solution was fixed with 100% methanol for 15 minutes, stained with a crystal violet dye solution for 1 hour, washed 3 times, and then dissolved in 95% ethanol, followed by measuring the absorbance at a wavelength of 595 nm using a micro titration plate reader, thereby determining a biofilm minimal inhibitory concentration value for each strain.

[2] = tested on: E. coli CCARM1238; assay type: cell-based, Escherichia coli; conditions: E. coli CCARM1238, antibiotics-tolerant; 37° C., 18 hours
Experimental: (§3) In order to evaluate the antimicrobial activity of the peptides prepared by the method of above 1, a minimal inhibitory concentration (MIC) value as the minimum concentration of a peptide, in which cells are not divided, was measured.
(§4) Specifically, the strains shown in Table 3 below were purchased, cultured in a medium having a constitutional composition suitable for each strain to a mid-log phase, and then diluted to a concentration of 2×10^4 cells/100 μl to prepare the product on a micro-titration plate (Nunc, USA). Then, PEP27, PEP27-1, PEP27-2 or PEP27-5 peptide synthesized in the above 1 was added to each well by serial dilution ½ times, followed by incubation at 37° C. for 18 hours.

[3] = tested on: E. coli ATCC27325; assay type: cell-based, Escherichia coli
Experimental: as §3, §4

[4] = tested on: Sa. typhimurium KCTC1926; assay type: cell-based, Salmonella typhimurium
Experimental: as §3, §4

[5] = tested on: Sa. typhimurium CCARM8007; assay type: cell-based, Salmonella typhimurium; conditions: Sa. typhimurium CCARM8007, antibiotics-tolerant; 37° C., 18 hours
Experimental: as §3, §4

[6] = tested on: Sa. typhimurium CCARM8009; assay type: cell-based, Salmonella typhimurium; conditions: Sa. typhimurium CCARM8009, antibiotics-tolerant; 37° C., 18 hours
Experimental: as §3, §4

[7] = tested on: E. coli CCARM1229; assay type: cell-based, Escherichia coli; conditions: 37° C., 24 hours
[8] = tested on: S. aureus CCARM3090; assay type: cell-based, Staphylococcus aureus; conditions: 37° C., 24 hours
Text: as §1, §2

[9] = tested on: S. aureus ATCC25923; assay type: cell-based, Staphylococcus aureus
Text: as §1, §2

[10] = tested on: S. aureus CCARM3089; assay type: cell-based, Staphylococcus aureus; conditions: 37° C., 24 hours
Text: as §1, §2

[11] = tested on: S. aureus ATCC29213; assay type: cell-based, Staphylococcus aureus
Text: as §1, §2

[12] = tested on: S. aureus CCARM3518; assay type: cell-based, Staphylococcus aureus; conditions: 37° C., 24 hours
Text: as §1, §2

[13] = tested on: red blood cells of a rat (Balb/c); conditions: 37° C., 1 hour
Experimental: In order to compare the cytotoxicity of the peptides prepared by the method of above 1, erythrocyte hemolytic activity of each of the synthesized peptides was measured.
Specifically, red blood cells of a rat (Balb/c, 6 weeks old, female) were diluted with PBS (pH 7.0) to a concentration of 8%, and PEP27, PEP27-1, PEP27-2 and PEP27-5 peptides were used for treatment of the cells at concentrations of 3.13, 6.25, 12.5, 25.01 50.0 and 100.0 μM/well, respectively, followed by reaction at 37° C. for 1 hour. Then, an amount of hemoglobin contained in the supernatant obtained by centrifugation at 1,000×g was determined by measuring the absorbance at a wavelength of 414 nm. As a control which is a standard for the degree of cell destruction, the absorbance of the obtained supernatant was measured after treatment using 1% Triton X-100 (Sigma, USA) and reaction at 37° C. for 1 hour. With reference to 100% erythrocytes hemolysis activity, hemolysis of each peptide was calculated from the measured absorbance using Equation 1 below. Erythrocyte destruction ability (%)=(Absorbance A−Absorbance B)/(Absorbance C−Absorbance B)×100 [Equation 1]
(wherein, absorbance A represents the absorbance of a reaction solution treated with each peptide measured at a wavelength of 414 nm; absorbance B represents the absorbance of a reaction solution treated with PBS measured at a wavelength of 414 nm; and absorbance C represents the absorbance of a reaction solution treated with 1% Triton X-100 measured at a wavelength of 414 nm).

[14] = tested on: B. subtilis KCTC1998; assay type: cell-based, Bacillus subtilis
Experimental: as §3, §4

[15] = tested on: L. monocytogens KCTC3710; assay type: cell-based, Listeria monocytogenes
Experimental: as §3, §4

[16] = tested on: E. coli CCARM1238; assay type: cell-based, Escherichia coli; conditions: 37° C., 24 hours
Text: as §1, §2

[17] = tested on: E. coli ATCC25922; assay type: cell-based, Escherichia coli
Text: as §1, §2

[18] = tested on: E. coli ATCC27325; assay type: cell-based, Escherichia coli; remark: listed apart in the source
Text: as §1, §2

[19] = Peptide concentration 100 μM, 100% = 1% Triton X-100

CC[C@H](C)[C@H](NC(=O)CN)C(=O)NCC(=O)N[C@@H](C)C(=O)N[C@H](C(=O)N[C@@H](CC(C)C)C(=O)N[C@@H](CCCCN)C(=O)N[C@H](C(=O)N[C@@H](CC(C)C)C(=O)N[C@H](C(=O)N[C@H](C(=O)NCC(=O)N[C@@H](CC(C)C)C(=O)N1CCC[C@H]1C(=O)N[C@@H](C)C(=O)N[C@@H](CC(C)C)C(=O)N[C@H](C(=O)N[C@@H](CO)C(=O)N[C@@H](Cc1c[nH]c2ccccc12)C(=O)N[C@H](C(=O)N[C@@H](CCCCN)C(=O)N[C@@H](CCCNC(=N)N)C(=O)N[C@@H](CCCCN)C(=O)N[C@@H](CCCNC(=N)N)C(=O)N[C@@H](CCC(N)=O)C(=O)N[C@@H](CCC(N)=O)C(N)=O)[C@@H](C)CC)[C@@H](C)CC)[C@@H](C)O)[C@@H](C)O)C(C)C)C(C)C [Melittin, reference compound]
Biofilm minimal inhibitory concentration ([1]; P. aeruginosa 4891, 37° C., 24 hours): 8 µM | Minimal inhibitory concentration [2]: 4 µM (≈ 11.4 µg/mL) | Minimal inhibitory concentration ([3]; E. coli ATCC27325, Gram-negative, 37° C., 18 hours): 2 µM (≈ 5.69 µg/mL) | Minimal inhibitory concentration ([4]; Sa. typhimurium KCTC1926, Gram-negative, 37° C., 18 hours): 4 µM (≈ 11.4 µg/mL) | Minimal inhibitory concentration [5]: 4 µM (≈ 11.4 µg/mL) | Minimal inhibitory concentration [6]: 4 µM (≈ 11.4 µg/mL) | Biofilm minimal inhibitory concentration [7]: 4 µM | Biofilm minimal inhibitory concentration [8]: 4 µM | Biofilm minimal inhibitory concentration ([9]; S. aureus ATCC25923, 37° C., 24 hours): 4 µM | Biofilm minimal inhibitory concentration [10]: 4 µM | Biofilm minimal inhibitory concentration ([11]; S. aureus ATCC29213, 37° C., 24 hours): 4 µM | Biofilm minimal inhibitory concentration [12]: 8 µM | Erythrocyte destruction ability ([13]; Peptide concentration 3.13 μM): 27.33% | Erythrocyte destruction ability ([13]; Peptide concentration 6.25 μM): 49.41% | Erythrocyte destruction ability ([13]; Peptide concentration 12.5 μM): 69.75% | Erythrocyte destruction ability ([13]; Peptide concentration 25 μM): 83.99% | Erythrocyte destruction ability ([13]; Peptide concentration 50 μM): 97.76% | Erythrocyte destruction ability [13, 19]: 99.17% | Minimal inhibitory concentration ([14]; B. subtilis KCTC1998, Gram-positive, 37° C., 18 hours): 4 µM (≈ 11.4 µg/mL) | Minimal inhibitory concentration ([15]; L. monocytogens KCTC3710, Gram-positive, 37° C., 18 hours): 4 µM (≈ 11.4 µg/mL) | Biofilm minimal inhibitory concentration [16]: 4 µM | Biofilm minimal inhibitory concentration ([17]; E. coli ATCC25922, 37° C., 24 hours): 4 µM | Biofilm minimal inhibitory concentration ([18]; E. coli ATCC27325, 37° C., 24 hours): 4 µM

CSCC[C@H](N)C(=O)N[C@@H](Cc1c[nH]c2ccccc12)C(=O)N[C@@H](CCCCN)C(=O)N[C@@H](Cc1c[nH]c2ccccc12)C(=O)N[C@@H](Cc1ccccc1)C(=O)N[C@@H](Cc1c[nH]cn1)C(=O)N[C@@H](CC(N)=O)C(=O)N[C@H](C(=O)N[C@@H](CC(C)C)C(=O)N[C@@H](CO)C(=O)N[C@@H](Cc1c[nH]c2ccccc12)C(=O)NCC(=O)N[C@@H](Cc1c[nH]c2ccccc12)C(=O)N[C@@H](CC(C)C)C(=O)N[C@@H](CC(C)C)C(=O)N[C@@H](C)C(=O)N[C@@H](CC(=O)O)C(=O)N[C@@H](CCCCN)C(=O)N[C@@H](CCCNC(=N)N)C(=O)N1CCC[C@H]1C(=O)N[C@@H](C)C(=O)N[C@@H](CCCNC(=N)N)C(=O)N[C@@H](CC(=O)O)C(=O)N[C@@H](Cc1ccc(O)cc1)C(=O)N[C@@H](CC(N)=O)C(=O)N[C@@H](CCCNC(=N)N)C(=O)N[C@@H](CCCCN)C(N)=O)C(C)C [PEP27-2] (H-MWKWFHNVLSWGWLLADKRPARDYNRK-NH2)
Biofilm minimal inhibitory concentration ([1]; 4891, 24 h): 8 µM | Minimal inhibitory concentration [2]: 4 µM (≈ 13.9 µg/mL) | Minimal inhibitory concentration ([3]; ATCC27325, 18 h): 4 µM (≈ 13.9 µg/mL) | Minimal inhibitory concentration ([4]; KCTC1926, 18 h): 8 µM (≈ 27.8 µg/mL) | Minimal inhibitory concentration [5]: 4 µM (≈ 13.9 µg/mL) | Minimal inhibitory concentration [6]: 4 µM (≈ 13.9 µg/mL) | Biofilm minimal inhibitory concentration [7]: 8 µM | Biofilm minimal inhibitory concentration [8]: 4 µM | maximum percent biofilm inhibition ([9]; ATCC25923): 83.4% | Biofilm minimal inhibitory concentration ([9]; ATCC25923, 24 h): 4 µM | Biofilm minimal inhibitory concentration [10]: 4 µM | Biofilm minimal inhibitory concentration ([11]; ATCC29213, 24 h): 4 µM | Biofilm minimal inhibitory concentration [12]: 4 µM | Erythrocyte destruction ability ([13]; Peptide concentration 3.13 μM): 0% | Erythrocyte destruction ability ([13]; Peptide concentration 6.25 μM): 2.30% | Erythrocyte destruction ability ([13]; Peptide concentration 12.5 μM): 14.96% | Erythrocyte destruction ability ([13]; Peptide concentration 25 μM): 40.51% | Erythrocyte destruction ability ([13]; Peptide concentration 50 μM): 62.47% | Erythrocyte destruction ability [13, 19]: 75.8% and 75.84% | Minimal inhibitory concentration ([14]; KCTC1998, 18 h): 4 µM (≈ 13.9 µg/mL) | Minimal inhibitory concentration ([15]; KCTC3710, 18 h): 8 µM (≈ 27.8 µg/mL) | Biofilm minimal inhibitory concentration [16]: 8 µM | maximum percent biofilm inhibition ([17]; ATCC25922): 91.8% | Biofilm minimal inhibitory concentration ([17]; ATCC25922, 24 h): 8 µM | Biofilm minimal inhibitory concentration ([18]; ATCC27325, 24 h): 8 µM

— US12180252B2, “Peptide derived from PEP27 peptide and uses thereof” (priority 2021, dated 2024)
